Results: ChEMBL document CHEMBL4390670, “4-Aryl Pyrrolidines as a Novel Class of Orally Efficacious Antimalarial Agents. Part 1: Evaluation of 4-Aryl- N-benzylpyrrolidine-3-carboxamides” (J Med Chem, 2019)
Calls of active or inactive are those of the source. No cut-off for these calls is given here.

How the values were obtained:
Plasmodium falciparum [1] = assay: microbe, parasite or virus in culture; conditions: 3D7, 72 h
Description: (§1) Antimalarial activity against chloroquine-sensitive Plasmodium falciparum 3D7 measured after 72 hrs by SYBR Green 1 dye based fluorescence assay

Plasmodium falciparum [2] = tested on: Plasmodium falciparum
Description: as §1

Plasmodium falciparum [3] = assay: Inhibition of Plasmodium falciparum plasmepsin 10 by Western blot analysis
[4] = Half life in mouse liver microsomes at 1 uM measured after 30 mins in presence of NADPH by LC-MS/MS analysis; format: ADME, Microsome; conditions: for t1/2: microsomes, 0.5 h, 1 µM
HepG2 = assay: Cytotoxicity against human HepG2 cells measured after 72 hrs by PrestoBlue cell viability reagent based assay; conditions: HepG2, 72 h
[5] = biological target: Plasmepsin V (Plasmodium falciparum (isolate 3D7)) (UniProt Q8I6Z5); assay: Inhibition of Plasmodium falciparum plasmepsin 5 by knockdown assay
Plasmodium falciparum [6] = assay: Inhibition of Plasmodium falciparum plasmepsin 9 by Western blot analysis
[7] = biological target: Voltage-gated inwardly rectifying potassium channel KCNH2 (Homo sapiens, UniProt Q12809)
Description: Inhibition of Tracer Red binding to human ERG expressed in membranes by fluorescence polarization assay

hERG = assay: in vitro; conditions: human, membranes expressing human ERG, probe Tracer Red
Description: Selectivity ratio of IC50 for inhibition of Tracer Red binding to human ERG expressed in membranes to IC50 for chloroquine-sensitive Plasmodium falciparum 3D7

[8] = Intrinsic clearance in mouse liver microsomes at 1 uM measured after 30 mins in presence of NADPH by LC-MS/MS analysis; format: ADME, Microsome; conditions: 0.5 h
Plasmepsin II = Plasmepsin II (Plasmodium falciparum, UniProt P46925); assay: Inhibition of Plasmodium falciparum plasmepsin 2 using EDANS-CO-CH2-CH2-CO-ALERMFLSFP-Dap(DABCYL)OH as substrate measured after 60 mins by fluorescence assay
Plasmepsin 4 = Plasmepsin 4 (Plasmodium falciparum, UniProt Q17SB2); assay: Inhibition of Plasmodium falciparum plasmepsin 4 using EDANS-CO-CH2-CH2-CO-ALERMFLSFP-Dap(DABCYL)OH as substrate measured after 60 mins by fluorescence assay
Beta-secretase 1 = Beta-secretase 1 (Homo sapiens, UniProt P56817); assay: Inhibition of recombinant human C-terminal His10-tagged BACE1 using Mca-SEVNLDAEFRK(Dpn)RR-NH2 as substrate measured after 60 mins by TR-FRET assay
[9] = Apparent clearance in mouse at 1 mg/kg, iv by LC-MS analysis; format: ADME, organism-based; conditions: in vivo, read-out: CL(app)
[10] = Apparent volume of distribution in mouse at 1 mg/kg, iv by LC-MS analysis; format: ADME, organism-based; conditions: in vivo, read-out: Vz
[11] = Half life in mouse at 1 mg/kg, iv by LC-MS analysis; format: ADME, organism-based; conditions: in vivo
Plasmodium chabaudi = assay: Antimalarial activity against chloroquine-resistant Plasmodium chabaudi ASCQ infected in NIH mouse assessed as inhibition of parasitemia at 10 mg/kg, po administered once daily for 4 days starting from 4 hrs post-infection and measured on day 4 by Peter's 4 day test relative to control; format: functional

Chain of Plasmepsin II (P46925 whole entry): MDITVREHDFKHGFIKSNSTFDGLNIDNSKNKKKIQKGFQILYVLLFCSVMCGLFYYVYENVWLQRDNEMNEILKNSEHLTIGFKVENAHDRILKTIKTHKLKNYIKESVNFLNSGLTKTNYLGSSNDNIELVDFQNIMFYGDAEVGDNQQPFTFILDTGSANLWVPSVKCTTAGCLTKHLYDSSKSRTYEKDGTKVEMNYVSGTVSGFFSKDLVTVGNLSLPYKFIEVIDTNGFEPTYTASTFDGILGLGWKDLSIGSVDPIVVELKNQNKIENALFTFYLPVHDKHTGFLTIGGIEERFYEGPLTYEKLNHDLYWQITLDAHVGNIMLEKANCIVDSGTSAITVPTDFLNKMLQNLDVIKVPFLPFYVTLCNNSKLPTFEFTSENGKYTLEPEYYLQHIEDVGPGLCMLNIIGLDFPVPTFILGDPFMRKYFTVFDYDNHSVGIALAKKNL
Chain of Beta-secretase 1 (P56817 whole entry): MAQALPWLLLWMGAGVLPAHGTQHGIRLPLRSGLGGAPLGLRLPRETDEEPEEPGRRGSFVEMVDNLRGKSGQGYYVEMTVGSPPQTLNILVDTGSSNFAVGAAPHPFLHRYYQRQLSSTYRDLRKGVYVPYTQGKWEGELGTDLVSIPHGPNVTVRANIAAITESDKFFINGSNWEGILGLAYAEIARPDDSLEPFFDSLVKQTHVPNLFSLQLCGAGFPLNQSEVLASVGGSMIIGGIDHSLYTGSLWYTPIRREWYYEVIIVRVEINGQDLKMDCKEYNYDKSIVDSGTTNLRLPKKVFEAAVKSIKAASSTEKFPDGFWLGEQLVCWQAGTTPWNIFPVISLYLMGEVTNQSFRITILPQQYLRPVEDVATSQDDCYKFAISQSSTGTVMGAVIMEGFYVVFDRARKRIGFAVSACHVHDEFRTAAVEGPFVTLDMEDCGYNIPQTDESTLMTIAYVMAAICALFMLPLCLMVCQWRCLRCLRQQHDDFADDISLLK
Chain of Plasmepsin 4 (Q17SB2 whole entry): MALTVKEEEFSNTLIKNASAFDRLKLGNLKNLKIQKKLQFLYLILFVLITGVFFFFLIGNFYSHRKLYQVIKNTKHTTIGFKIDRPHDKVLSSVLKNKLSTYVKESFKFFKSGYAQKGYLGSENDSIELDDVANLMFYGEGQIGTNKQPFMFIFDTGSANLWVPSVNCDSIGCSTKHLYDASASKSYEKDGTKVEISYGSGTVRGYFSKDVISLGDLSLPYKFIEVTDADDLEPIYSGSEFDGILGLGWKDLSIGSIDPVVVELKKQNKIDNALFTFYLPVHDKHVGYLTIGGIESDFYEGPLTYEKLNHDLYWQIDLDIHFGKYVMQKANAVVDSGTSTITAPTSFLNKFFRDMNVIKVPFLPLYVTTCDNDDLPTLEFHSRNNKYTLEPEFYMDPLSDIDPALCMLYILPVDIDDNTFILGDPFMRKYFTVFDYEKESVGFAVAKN
Chain of Voltage-gated inwardly rectifying potassium channel KCNH2 (Q12809 whole entry): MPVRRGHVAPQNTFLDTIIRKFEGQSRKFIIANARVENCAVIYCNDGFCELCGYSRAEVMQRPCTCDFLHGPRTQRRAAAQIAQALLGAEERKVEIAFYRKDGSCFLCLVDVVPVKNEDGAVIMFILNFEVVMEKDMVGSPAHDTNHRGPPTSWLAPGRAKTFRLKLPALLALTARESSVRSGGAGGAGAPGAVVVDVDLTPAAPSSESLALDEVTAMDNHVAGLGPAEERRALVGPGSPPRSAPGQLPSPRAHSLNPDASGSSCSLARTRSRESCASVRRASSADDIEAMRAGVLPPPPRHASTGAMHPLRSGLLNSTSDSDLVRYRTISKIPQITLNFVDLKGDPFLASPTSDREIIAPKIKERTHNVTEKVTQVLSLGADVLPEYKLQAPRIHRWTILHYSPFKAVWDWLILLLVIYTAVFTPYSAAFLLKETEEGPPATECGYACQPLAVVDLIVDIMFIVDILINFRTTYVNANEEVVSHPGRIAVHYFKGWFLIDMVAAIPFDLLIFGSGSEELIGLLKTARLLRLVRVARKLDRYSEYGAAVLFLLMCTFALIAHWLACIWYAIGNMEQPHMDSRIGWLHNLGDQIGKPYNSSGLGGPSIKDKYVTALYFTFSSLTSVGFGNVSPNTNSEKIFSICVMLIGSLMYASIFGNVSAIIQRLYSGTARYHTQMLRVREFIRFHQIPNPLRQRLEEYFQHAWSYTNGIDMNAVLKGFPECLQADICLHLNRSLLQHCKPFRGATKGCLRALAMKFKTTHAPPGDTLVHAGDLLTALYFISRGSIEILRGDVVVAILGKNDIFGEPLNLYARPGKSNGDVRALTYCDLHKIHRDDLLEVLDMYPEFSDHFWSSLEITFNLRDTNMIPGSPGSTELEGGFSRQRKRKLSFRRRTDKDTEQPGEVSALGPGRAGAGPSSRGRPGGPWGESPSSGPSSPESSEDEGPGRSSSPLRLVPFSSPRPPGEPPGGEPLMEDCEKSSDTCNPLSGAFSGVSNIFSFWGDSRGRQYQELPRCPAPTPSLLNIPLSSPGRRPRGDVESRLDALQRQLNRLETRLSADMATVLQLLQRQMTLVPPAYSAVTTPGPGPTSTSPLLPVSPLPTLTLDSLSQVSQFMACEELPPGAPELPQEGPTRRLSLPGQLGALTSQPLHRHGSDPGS
Chain of Plasmepsin V (Plasmodium falciparum (isolate 3D7)) (Q8I6Z5 whole entry, looked up): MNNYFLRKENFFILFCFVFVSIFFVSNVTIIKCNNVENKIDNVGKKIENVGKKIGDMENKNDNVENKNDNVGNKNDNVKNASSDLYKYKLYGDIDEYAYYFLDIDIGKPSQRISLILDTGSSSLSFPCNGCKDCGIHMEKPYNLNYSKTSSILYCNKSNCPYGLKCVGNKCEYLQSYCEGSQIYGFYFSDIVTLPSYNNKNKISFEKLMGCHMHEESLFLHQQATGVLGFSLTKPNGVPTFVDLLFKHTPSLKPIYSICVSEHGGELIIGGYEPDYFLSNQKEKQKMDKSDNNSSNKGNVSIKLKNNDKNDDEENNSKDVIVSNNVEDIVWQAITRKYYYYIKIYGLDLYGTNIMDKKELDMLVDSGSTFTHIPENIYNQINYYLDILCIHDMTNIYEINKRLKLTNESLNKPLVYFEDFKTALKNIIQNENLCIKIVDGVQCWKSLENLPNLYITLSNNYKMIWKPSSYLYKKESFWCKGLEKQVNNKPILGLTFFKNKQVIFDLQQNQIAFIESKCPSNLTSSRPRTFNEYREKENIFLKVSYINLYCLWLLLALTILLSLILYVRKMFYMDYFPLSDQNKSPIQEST

`CN(C)c1ccc(CNC(=O)[C@H]2CNC[C@@H]2c2ccc(S(F)(F)(F)(F)F)cc2)cc1` (racemic) showed an IC50 (Plasmodium falciparum [1]) of 470 nM.
For `C[C@@H](NC(=O)[C@H]1CNC[C@@H]1c1ccc(C(F)(F)F)nc1)c1ccc(N(C)C)cc1`, the IC50 (Plasmodium falciparum [1]) was 11000 nM.
`CN(C)c1ccc(CNC(=O)[C@@H]2CNC[C@H]2CCc2ccc(C(F)(F)F)cc2)cc1` (racemic) showed an IC50 (Plasmodium falciparum [1]) of 4400 nM.
For `CN(C)c1ccc(CNC(=O)[C@H]2CNC[C@@H]2c2ccc(C(F)(F)F)nc2)cc1`, the IC50 (Plasmodium falciparum [2]) was 116 nM.
In the case of `CN(C)Cc1ccc(CNC(=O)[C@H]2CNC[C@@H]2c2ccc(C(F)(F)F)nc2)cc1` (racemic), the IC50 (Plasmodium falciparum [1]) is reported as > 20000 nM.
Molecule `CN(C)c1ccc(CNC(=O)[C@H]2CNC[C@@H]2c2ccc(C(C)(C)C)s2)cc1` (racemic) has an IC50 (Plasmodium falciparum [1]) of 280 nM.
In the case of `CN(C)c1ccc(CNC(=O)[C@@H]2CNC[C@H]2c2ccc(C(F)(F)F)cc2F)cc1` (racemic), the IC50 (Plasmodium falciparum [1]) is reported as 890 nM.
In the case of `COc1ccc(CNC(=O)[C@@H]2CNC[C@H]2c2ccc(C(F)(F)F)cc2)cc1` (racemic), the inhibition (Plasmodium falciparum [3]) is reported as “inactive”, the half-life at 1 µM ([4]; liver microsomes) is reported as 37 min and the IC50 (Plasmodium falciparum [1]) is reported as 360 to 385 nM. The IC50 (HepG2) was 33000 nM, the inhibition [5] was “inactive” and the inhibition (Plasmodium falciparum [6]) was “inactive”.
For `C[C@H](NC(=O)[C@H]1CNC[C@@H]1c1ccc(C(F)(F)F)nc1)c1ccc(N(C)C)cc1`, the IC50 (Plasmodium falciparum [1]) was 140 nM, the IC50 [7] was > 50000 nM and the selectivity ratio (hERG) was > 357.
`CN(C)c1ccc(CNC(=O)[C@H]2CNC[C@@H]2c2cc(C(F)(F)F)n(C)n2)cc1` (racemic) gave an IC50 (Plasmodium falciparum [1]) of 5300 nM.
For `CN(C)c1ccc(CNC(=O)[C@@H]2CNC[C@H]2c2ccc(C(F)(F)F)c(Cl)c2)cc1` (racemic), the “Intrinsic clearance (CLint)” value [8] was 6.7 µL/min/mg, the t1/2 [4] was 33 min and the IC50 (Plasmodium falciparum [1]) was 83 nM. For the same molecule, the IC50 [7] was 7560 nM, the IC50 (Plasmepsin II) was > 10000 nM and the IC50 (Plasmepsin 4) was > 10000 nM. The IC50 (Beta-secretase 1) was > 10000 nM.
`Cc1ccc([C@@H]2CNC[C@H]2C(=O)NCc2ccc(N(C)C)cc2)cc1` (racemic) showed an IC50 (Plasmodium falciparum [1]) of 750 nM.
`CN1CCc2cc(CNC(=O)[C@@H]3CNC[C@H]3c3ccc(C(F)(F)F)cc3)ccc21` (racemic) gave an IC50 (Plasmodium falciparum [1]) of 230 nM.
Work on `CN(C)c1ccc(CNC(=O)[C@H]2CNC[C@@H]2c2cc3ccccc3s2)cc1` (racemic) yielded an IC50 (Plasmodium falciparum [1]) of 270 nM.
For `Cc1ccc(CNC(=O)[C@@H]2CNC[C@H]2c2ccc(C(F)(F)F)cc2)cc1` (racemic), the “Intrinsic clearance (CLint)” value [8] was 1.4 µL/min/mg, the clearance [9] was 52 mL/min/kg and the t1/2 [4] was 161 min. For the same molecule, the IC50 (Plasmodium falciparum [1]) was 460 nM, the Vd [10] was 7.3 L/kg and the IC50 (Plasmepsin II) was > 10000 nM. For the same molecule, the half-life [11] was 102 min, the IC50 (Plasmepsin 4) was > 10000 nM and the IC50 (Beta-secretase 1) was > 10000 nM.
In the case of `CN(C)c1ccc(CNC(=O)[C@@H]2CNC[C@H]2c2cnc3ccccc3c2)cc1` (racemic), the IC50 (Plasmodium falciparum [1]) is reported as 280 nM.
For `CN(C)c1ccc(CNC(=O)[C@H]2CNC[C@@H]2c2ccc(C(C)(F)F)cc2)cc1` (racemic), the IC50 (Plasmodium falciparum [1]) was 130 nM.
With `CCN(CC)CCCC(C)Nc1ccnc2cc(Cl)ccc12` (stereo not given) [CHLOROQUINE] the inhibition in vivo at 10 mg/kg (Plasmodium chabaudi) was 95%.
In the case of `CCN(CC)c1ccc(CNC(=O)[C@@H]2CNC[C@H]2c2ccc(C(F)(F)F)cc2)cc1` (racemic), the IC50 (Plasmodium falciparum [1]) is reported as 600 nM, the IC50 [7] is reported as 4740 nM and the IC50 (Plasmepsin II) is reported as > 10000 nM. The IC50 (Plasmepsin 4) was > 10000 nM and the IC50 (Beta-secretase 1) was > 10000 nM.
`O=C(NCc1ccc(-n2cccn2)cc1)[C@H]1CNC[C@@H]1c1ccc(C(F)(F)F)nc1` showed an IC50 (Plasmodium falciparum [1]) of 29000 nM.
Molecule `Cc1ccc([C@@H]2CNC[C@H]2C(=O)NCc2ccc(N(C)C)cc2)cc1Cl` (racemic) has an IC50 (Plasmodium falciparum [1]) of 230 nM.
For `CN(C)c1ccc(CNC(=O)[C@H]2CNC[C@@H]2c2ccc(C(F)(F)F)cc2)cc1` (racemic), the “Intrinsic clearance (CLint)” value [8] was 6.2 µL/min/mg, the t1/2 [4] was 35 min and the IC50 (Plasmodium falciparum [1]) was 200 nM. For the same molecule, the IC50 [7] was 9410 nM, the IC50 (Plasmepsin II) was > 10000 nM and the IC50 (Plasmepsin 4) was > 10000 nM. The IC50 (Beta-secretase 1) was > 10000 nM.
With `CN(C)c1ccc(CNC(=O)[C@H]2CNC[C@@H]2c2ccc3sccc3c2)cc1` (racemic) the IC50 (Plasmodium falciparum [1]) was 220 nM.
`CN(C)c1ccc(CNC(=O)[C@@H]2CNC[C@H]2c2cccc(Oc3ccccc3)c2)cc1` (racemic) gave an IC50 (Plasmodium falciparum [1]) of 1800 nM.
